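These data come from cells grown in 96-well plates and exposed to compound for 48 hours at five concentrations. Here, GI50 denotes the concentration required for 50% inhibition of growth.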 Activity calls are given as the source filed them. Rule as the data show it: active = GI50 up to about 1.1 µM and inactive = higher.
Assays:
Test in all cases: inhibition of tumour cell growth, NCI panel, 48 h
[1] = system: 786-0
[2] = system: BT-549
[3] = system: DU-145
[4] = system: EKVX
[5] = system: HCC 2998
[6] = system: HCT-15
[7] = system: HL-60
[8] = system: HOP-92
[9] = system: MDA-MB-231
[10] = system: Malme-3M
[11] = system: NCI-H460
[12] = system: NCI/ADR-RES
[13] = system: OVCAR-8
[14] = system: RXF 393
[15] = system: SK-MEL-28
[16] = system: SK-MEL-5
[17] = system: SW-620
[18] = system: T47D
[19] = system: UACC-62
[20] = system: K562

SMILES | GI50 [1] | GI50 [2] | GI50 [3] | GI50 [4] | GI50 [5] | GI50 [6] [µM] | GI50 [7] | GI50 [8] | GI50 [9] | GI50 [10] | GI50 [11] | GI50 [12] | GI50 [13] | GI50 [14] | GI50 [15] | GI50 [16] | GI50 [17] | GI50 [18] | GI50 [19] | GI50 [20]
Cc1ccc(NC(=O)CC(=O)N2N=C(N3CCCCC3)CC2c2ccccc2)cc1 (stereo not drawn) | > 100 µM (inactive) | > 100 µM (inactive) | > 100 µM (inactive) | > 100 µM (inactive) | > 100 µM (inactive) | > 100 | > 100 µM (inactive) | > 100 µM (inactive) | > 100 µM (inactive) | > 100 µM (inactive) | > 100 µM (inactive) | > 100 µM (inactive) | > 100 µM (inactive) | > 100 µM (inactive) | > 100 µM (inactive) | > 100 µM (inactive) | > 100 µM (inactive) | > 100 µM (inactive) | > 100 µM (inactive) | 
COc1ccc(C2C(C#N)=C(S)N(C3OC(COC(C)=O)C(OC(C)=O)C(OC(C)=O)C3OC(C)=O)C(C)=C2C(C)=O)cc1 (stereo not drawn) | > 100 µM (inactive) | 52.4 µM (inactive) | > 100 µM (inactive) |  | > 100 µM (inactive) | > 100 | 46.3 µM (inactive) | 30 µM (inactive) | > 100 µM (inactive) | > 100 µM (inactive) | 83.4 µM (inactive) | > 100 µM (inactive) |  | 40.5 µM (inactive) | > 100 µM (inactive) | 26.4 µM (inactive) | 42.3 µM (inactive) | 28.6 µM (inactive) | 57.5 µM (inactive) | 28.1 µM (inactive)
CCOC(=O)/C(C#N)=C/c1ccnc2ccccc12 | 61.9 µM (inactive) | 50.5 µM (inactive) | > 100 µM (inactive) | > 100 µM (inactive) | > 100 µM (inactive) | 31.9 |  | 40.2 µM (inactive) | 83.9 µM (inactive) | 37.1 µM (inactive) | > 100 µM (inactive) | 13.5 µM (inactive) | 10.4 µM (inactive) | > 100 µM (inactive) | 88.5 µM (inactive) | 31.7 µM (inactive) | 9.79 µM (inactive) | > 100 µM (inactive) | > 100 µM (inactive) | 
O=C(n1c(=O)n(-c2ccc([N+](=O)[O-])cc2)c(=O)n1C(=O)C(Cl)(Cl)Cl)C(Cl)(Cl)Cl | > 100 µM (inactive) | > 100 µM (inactive) | > 100 µM (inactive) | > 100 µM (inactive) | > 100 µM (inactive) | > 100 | > 100 µM (inactive) |  | > 100 µM (inactive) | > 100 µM (inactive) | > 100 µM (inactive) | > 100 µM (inactive) | > 100 µM (inactive) | > 100 µM (inactive) | > 100 µM (inactive) | > 100 µM (inactive) | > 100 µM (inactive) | > 100 µM (inactive) | > 100 µM (inactive) | > 10 µM (inactive)
COC(=O)c1cc(-c2c[nH]cc2C(=O)OCc2ccccc2)cn1S(=O)(=O)c1ccc(C)cc1 | > 100 µM (inactive) | 71.4 µM (inactive) | > 100 µM (inactive) | 8.89 µM (inactive) | > 100 µM (inactive) | > 100 |  |  | > 100 µM (inactive) | > 100 µM (inactive) | 57.3 µM (inactive) | 66.7 µM (inactive) | > 100 µM (inactive) | > 100 µM (inactive) |  | 4.16 µM (inactive) |  | 4.71 µM (inactive) | > 100 µM (inactive) | 7.5 µM (inactive)
C=CCN1C(=O)/C(=C/c2ccccc2)N=C1SC/C=C/C | 42.7 µM (inactive) | 51.3 µM (inactive) | 57.5 µM (inactive) |  | 28.3 µM (inactive) | 47.5 |  | 12.2 µM (inactive) | 86.7 µM (inactive) |  | 43.8 µM (inactive) | 49.4 µM (inactive) | 45.1 µM (inactive) | 15.2 µM (inactive) | 69.3 µM (inactive) | 18.4 µM (inactive) | 46.1 µM (inactive) | 20.2 µM (inactive) | 51.5 µM (inactive) | 0.0146 µM (active)
Cc1ccc(/N=N/C(=N/NC(=O)c2ccccc2)c2ccc(N(CCC#N)CCC#N)cc2C)cc1 | 33.3 µM (inactive) | 48.3 µM (inactive) | 43.2 µM (inactive) | 63.4 µM (inactive) | 24.9 µM (inactive) | 25.3 | 12.2 µM (inactive) |  | 31.4 µM (inactive) | 43.5 µM (inactive) | 20.3 µM (inactive) | > 100 µM (inactive) | 39.4 µM (inactive) | 22.8 µM (inactive) |  | 13.4 µM (inactive) |  | 37.4 µM (inactive) | 31 µM (inactive) | 8.05 µM (inactive)
Cc1nc(-c2cc3cc(Cl)ccc3oc2=O)cc2c1c(=O)oc1ccc(Cl)cc12 | > 100 µM (inactive) | > 100 µM (inactive) | > 100 µM (inactive) | > 100 µM (inactive) | > 100 µM (inactive) | > 100 | > 100 µM (inactive) | > 100 µM (inactive) | > 100 µM (inactive) |  | > 100 µM (inactive) | > 100 µM (inactive) | > 100 µM (inactive) | > 100 µM (inactive) | > 100 µM (inactive) | > 100 µM (inactive) | > 100 µM (inactive) | > 100 µM (inactive) | > 100 µM (inactive) | > 100 µM (inactive)
